Reference: patent US20080299239A1, “Inhibitor of Glucose Absorption and Method for Producing the Same” (NICHIREI FOODS INC., priority 2003, published 2008)

Test system: Caco-2 cells
Assay: Test of glucose uptake by cultured Caco-2 cells derived from human intestinal tract
Assay type: cell-based
Details: 250 μg/ml, 15 min preincubation, 10 min incubation, differentiated Caco-2 cells; for glucose transportation (3H-labeled glucose uptake): FIG. 1, relative to control; for 3-O-methyl glucose transportation (3H-labeled uptake): FIG. 2, relative to control
Experimental: Cultured Caco-2 cells derived from human intestinal tracts were monolayer-cultured on a plate for about 10 days and then differentiated. A DMEM medium containing 10% fetal calf serum was used. Pigment 1 and pigment 2 (250 μg/ml each) were added to the differentiated Caco-2 cells, the resultants were preincubated for 15 minutes, and ^3H-labeled glucose or 3-O-methyl glucose was then added thereto, followed by incubation for 10 minutes. ^3H incorporated into the cells was analyzed to determine the amount of glucose or methyl glucose transported.

C[C@@H]1O[C@@H](Oc2cc3c(O)cc(O)cc3[o+]c2-c2ccc(O)c(O)c2)[C@H](O)[C@H](O)[C@H]1O.[Cl-] [pigment 1, cyanidin-3-rhamnoside]
glucose transportation (3H-labeled glucose uptake): specifically inhibited
3-O-methyl glucose transportation (3H-labeled uptake): specifically inhibited

CC1O[C@@H](Oc2cc3c(O)cc(O)cc3[o+]c2-c2ccc(O)cc2)[C@@H](O)C(O)[C@H]1O (stereo partly shown) [pigment 2, pelargonidin-3-rhamnoside]
glucose transportation (3H-labeled glucose uptake): specifically inhibited
3-O-methyl glucose transportation (3H-labeled uptake): specifically inhibited
